Legend:
[1] = tested on: human donor corneal endothelial cells; experiment: Apoptosis and necrosis assays on donor endothelial cell-Descemet membrane tissue after storage; assay type: cell-based; conditions: for corneal endothelial cell necrosis, change vs control: vs diluent control
Procedure: Human corneal tissue pairs were obtained by Iowa Lions Eye Bank (ILEB) from nondiabetic donors 60-75 years old and stored in Optisol GS (Bausch+Lomb, Irvine, Calif.) at 4° C. following procurement in accordance with Eye Bank Association of America and ILEB policies and procedures. […] Descemet membrane and endothelial cell punches were collected and mounted onto the bottom of a Seahorse assay plate (cells facing upward). Mitochondrial respiration was assayed by measuring oxygen consumption using the Seahorse XFe24 Extracellular Flux Analyzer (Agilent Technologies, Santa Clara, Calif.) over 120 minutes (9-minute intervals). Punches were labeled with a nuclear counterstain (DAPI) and remaining tissues were mounted onto slides and labeled with 488A-Annexin V, Ethidium Homodimer III, and Hoechst 33342 (Apoptotic, Necrotic, and Healthy Cells Quantification Kit; Biotium, Fremont, Calif.) to assay cell health. Nuclei were counted in each punch to normalize respirometry data. Immunohistochemistry densitometry was measured using ImageJ software.
(§1) Human corneal tissue pairs were obtained by Iowa Lions Eye Bank (ILEB) from nondiabetic donors 60-75 years old and stored in Optisol GS (Bausch+Lomb, Irvine, Calif.) at 4° C. following procurement in accordance with Eye Bank Association of America and ILEB policies and procedures. For 5 days prior to testing, but within 9 days of procurement, one stored tissue from a corneal pair was treated with 10 μM CoQ10, while the mate tissue was treated with diluent only as a control. Descemet membrane and endothelial cell punches were collected and mounted onto the bottom of a Seahorse assay plate (cells facing upward). Mitochondrial respiration was assayed by measuring oxygen consumption using the Seahorse XFe24 Extracellular Flux Analyzer (Agilent Technologies, Santa Clara, Calif.) over 120 minutes (9-minute intervals). Punches were labeled with a nuclear counterstain (DAPI) and remaining tissues were mounted onto slides and labeled with 488A-Annexin V, Ethidium Homodimer III, and Hoechst 33342 (Apoptotic, Necrotic, and Healthy Cells Quantification Kit; Biotium, Fremont, Calif.) to assay cell health. Nuclei were counted in each punch to normalize respirometry data. Immunohistochemistry densitometry was measured using ImageJ software.
as §1, with “100” for “10”, “palmitate-BSA,” for “CoQ10,”, “BSA” for “diluent”
In brief, excess EDM tissues from surrounding the punches used for metabolic assays were incubated with 488A-Annexin V, Ethidium Homodimer III, and Hoechst 33342 (Apoptotic, Necrotic, and Healthy Cells Quantification Kit; Biotium, Fremont, Calif.) to detect the apoptotic, necrotic, and entire cell populations, respectively. […]

[2] = Stability in water (yellowish discoloration = oxidation to ubiquinone); assay type: physicochemical; conditions: shaken in water for 24 h
Procedure: • γ-CD was dissolved in water at different concentrations, and ubiquinol was added to it while stirring (protected from light). • Stirring continues for 2-5 days. Finally, the formed precipitate (complex) was collected and dried. • Yellow discoloration, which indicates the oxidation of ubiquinol following the formation of the yellow oxidized form (ubiquinone), was noticeable at different degrees depending on the stirring time.
In FIG. 11, the image on the right is 5 mg of CoQ10 added to 10 ml H2O and shaken for 24 hours. […] The instability of ubiquinol in water after both free drug or the complex was stirred in water for 24 h explains why the kneading method that involves the minimum amount of water was chosen form preparation.

[3] = 10 μM ubiquinol vs diluent-treated mate cornea, 5 days, n = 9
[4] = 10 μM ubiquinol, 5 days in Optisol-GS, n = 9 matched tissues
[5] = palmitate-BSA treated tissues (100 μM), 5 days, n = 8 matched tissues

## ubiquinol
[1]; 1 μM coQ10, tissues in storage
  protection against apoptosis and necrosis: protected not only against apoptosis, but also against necrosis
[1]; 10 μM CoQ10, 5 days in Optisol GS, vs diluent control (p=0.09)
  apoptosis reduced in treated cells: 29%
[1]; 10 μM CoQ10, 5 days in Optisol GS, listed as CoQ10
  corneal endothelial cell necrosis, change vs control: not changed
[1]; 10 μM CoQ10, 5 days in Optisol GS, listed as co-Q10
  corneal endothelial cell necrosis, change vs control: did not change
[1]; 10 μM CoQ10, 5 days in Optisol GS, listed as coenzyme Q10
  corneal endothelial cell necrosis, change vs control: did not change
[1]; [3]
  % Apoptotic, Mean Ratio: Ubiquinol/Control (95% CI): Ratio: 0.90 (0.63, 1.29)
  % Necrotic, Mean Ratio: Ubiquinol/Control (95% CI): Ratio: 1.02 (0.91, 1.15)
[1]; [4]
  % Apoptotic, Mean (SD): 0.0040 (0.0047) %
  % Necrotic, Mean (SD): 0.0263 (0.0070) %
[1]; Example 13: 10 μM ubiquinol, 5 days in Optisol-GS (p=0.517)
  apoptosis, change vs controls: no significant change
[1]; Example 13: 10 μM ubiquinol, 5 days in Optisol-GS (p=0.694)
  cell necrosis, change vs controls: no significant change
[1]; [5]
  % Apoptotic, Mean (SD): 0.00053 (0.00062) %
  % Necrotic, Mean (SD): 0.0628 (0.0532) %
[1]; ubiquinol supplemented corneal storage medium vs non-supplemented
  CEC cell death in storage: decreased
[2]
  stability in water (discoloration): yellowish discoloration was noticeable

— US20220249399A1, “COMPOSITION COMPRISING AN ANTI-OXIDANT TO PRESERVE CORNEAL TISSUE” (University of lowa Research Foundation, priority 2019, published 2022)
